Consider 11 molecules from ChEMBL document CHEMBL1201862, “PubChem BioAssay data set” (2004).

Each structure is given as a SMILES string.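 Results reflect a 48-hour exposure of cells in 96-well plates to compound at five concentrations. Abbreviation: GI50, concentration required for 50% inhibition of growth.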 Calls of active or inactive are those of the source. Cut-off read from the data, not from the text of the source: active = GI50 up to about 1.1 µM and inactive = higher. A value given as a limit tells only on which side of the number the result lay.

Common to all, as to assay: NCI-60 cell line screen, 48 h
Assay [1] deals with TK-10.
The test system of assay [2] is SNB-75.
The test system of assay [3] is MDA-MB-231.
Assay [4] has as its system BT-549.
For assay [5], the system named is 786-0.
For assay [6], the system named is DU-145.
For assay [7], the system named is Hs-578T.
Assay [8] deals with OVCAR-8.
Assay [9] relates to SR.
Assay [10] relates to UO-31.
Assay [11] deals with PC-3.
The test system of assay [12] is MDA-N.
In assay [13] the test system is NCI-H226.
The test system of assay [14] is RXF 393.
Assay [15] relates to MDA-MB-435.
Assay [16] relates to MCF7.
Assay [17] has as its system LOX IMVI.
The subject of assay [18] is NCI/ADR-RES.
Assay [19] concerns T47D.

With `CC(=O)O[C@H]1C(=O)[C@@]2(C)[C@H]([C@H](OC(=O)c3cccc([N+](=O)[O-])c3)[C@]3(O)C[C@H](OC(=O)[C@H](O)[C@@H](NC(=O)c4ccccc4)c4ccccc4)C(C)=C1C3(C)C)[C@]1(OC(C)=O)CO[C@@H]1C[C@@H]2O`, the GI50 in assay [1] was 0.0495 µM (active); in [2], 0.00759 µM (active); in assay [3], 0.0122 µM (active); in [4], 0.0376 µM (active); in assay [5], 0.0159 µM (active); in [6], 0.0177 µM (active). Further, the GI50 is 0.00322 µM (active) in assay [7]; 0.00785 µM (active) in assay [8]; 0.00447 µM (active) in assay [9]; 0.568 µM (active) in [10]; 0.0065 µM (active) in [11]; 0.00285 µM (active) in [12]. The GI50 in assay [13] was 0.00257 µM (active); in assay [14], 0.0133 µM (active); in assay [15], 0.00336 µM (active); in [16], 0.00423 µM (active); in [17], 0.00558 µM (active); in assay [18], 5.52 µM (inactive).

As to `O=C1/C(=C\c2cccc(Oc3ccccc3)c2)SC(c2ccccc2)N1c1cccc([N+](=O)[O-])c1` (centres undefined), the GI50 in assay [1] is > 100 µM (inactive); in assay [3], > 100 µM (inactive); in assay [4], > 100 µM (inactive); in [5], > 100 µM (inactive); in [6] it was > 100 µM (inactive); in [7] it was 98.9 µM (inactive). The GI50 was 35.5 µM (inactive) in assay [8]; 32.3 µM (inactive) in [9]; 96.8 µM (inactive) in assay [10]; 33.9 µM (inactive) in assay [12]; 87.1 µM (inactive) in assay [13]; > 100 µM (inactive) in assay [14]. The GI50 is 41.6 µM (inactive) in assay [15]; > 100 µM (inactive) in assay [19]; 28.2 µM (inactive) in assay [16]; 41.6 µM (inactive) in assay [17]; 82.8 µM (inactive) in assay [18].

In the case of `O=C1N=C(SC(SC2=NC(=O)C3(NN2)c2ccccc2-c2ccccc23)=C(SC2=NC(=O)C3(NN2)c2ccccc2-c2ccccc23)SC2=NC(=O)C3(NN2)c2ccccc2-c2ccccc23)NNC12c1ccccc1-c1ccccc12`, the GI50 was > 10 µM (inactive) in assay [1]; 7.96 µM (inactive) in assay [2]; 4.71 µM (inactive) in assay [3]; 6.53 µM (inactive) in [4]; 9.66 µM (inactive) in assay [5]; > 10 µM (inactive) in assay [6]. Also, the GI50 in assay [7] is > 10 µM (inactive); in assay [8] it was 7.21 µM (inactive); in assay [9] it was 3.24 µM (inactive); in assay [10], 3.18 µM (inactive); in [11], 4.62 µM (inactive); in assay [12], 5.36 µM (inactive). For the same molecule, the GI50 is 2.76 µM (inactive) in [13]; > 10 µM (inactive) in assay [14]; > 10 µM (inactive) in [15]; 0.935 µM (active) in assay [19]; 4.27 µM (inactive) in assay [16]; > 10 µM (inactive) in [17]. Further, in assay [18], the GI50 is 3.66 µM (inactive).

In the case of `COP(=O)(OC)C(N)CCSC` (centres undefined), the GI50 in [1], in [2], in assay [4], in assay [5], in [7] and in assay [8] was > 100 µM (inactive) each time. Also, the GI50 in assay [9], in [10], in [11], in [12], in [13] and in [15] was > 100 µM (inactive) each time. Moreover, the GI50 in [16], in [17] and in assay [18] was > 100 µM (inactive) throughout.

With `CCCn1c(CN(Cc2nc3ccccc3n2CCC)Cc2nc3ccccc3n2CCC)nc2ccccc21`, the GI50 is 15.7 µM (inactive) in assay [1]; 6.79 µM (inactive) in assay [2]; 2.04 µM (inactive) in assay [3]; 5.71 µM (inactive) in assay [4]; 7.83 µM (inactive) in assay [6]; 25.6 µM (inactive) in [7]. For the same molecule, the GI50 in assay [8] is 2.25 µM (inactive); in assay [9] it was 2.58 µM (inactive); in assay [10], 2.21 µM (inactive); in [11], 3.31 µM (inactive); in assay [12] it was 2.26 µM (inactive); in assay [13], 6.47 µM (inactive). In addition, the GI50 in assay [14] is 0.249 µM (active); in assay [15], 3.27 µM (inactive); in assay [19], 2.55 µM (inactive); in [16] it was 0.973 µM (active); in assay [17], 3.7 µM (inactive); in assay [18], 8.69 µM (inactive).

As for `CC(=O)Nc1cc2c(cc1O)CC[C@@H]1[C@@H]2CC[C@]2(C)[C@@H](O)CC[C@@H]12`, the GI50 in assay [1] was 49.7 µM (inactive); in [3], 55 µM (inactive); in assay [4], 31.7 µM (inactive); in assay [5], 63 µM (inactive); in assay [7] it was 74.1 µM (inactive); in [8], 44.3 µM (inactive). Moreover, the GI50 in [9] was 20.8 µM (inactive); in assay [10] it was 21.5 µM (inactive); in [11] it was 35.5 µM (inactive); in assay [12], 18.1 µM (inactive); in assay [13], 30.8 µM (inactive); in assay [14], 43.3 µM (inactive). Besides, the GI50 in assay [15] is 19.7 µM (inactive); in [19], 30.3 µM (inactive); in assay [16] it was 28.6 µM (inactive); in [17], 34.6 µM (inactive); in assay [18], 19.9 µM (inactive).

Consider `COc1cc(Nc2nc3cc(C(F)(F)F)ccc3n3cccc23)cc(OC)c1OC`, for which the GI50 was > 100 µM (inactive) in assay [1]; > 100 µM (inactive) in assay [2]; 89.5 µM (inactive) in [4]; > 100 µM (inactive) in assay [6]; > 100 µM (inactive) in assay [7]; > 100 µM (inactive) in [8]. Besides, the GI50 was > 100 µM (inactive) in assay [10]; > 100 µM (inactive) in assay [11]; > 100 µM (inactive) in [12]; 3.93 µM (inactive) in assay [14]; 9.46 µM (inactive) in assay [15]; 2.96 µM (inactive) in assay [19]. The figures for the GI50 in [16] and in [18] were > 100 µM (inactive) and 9.4 µM (inactive), respectively.

Consider `O=C1C[C@H](Sc2ccccc2)C2(OCCO2)[C@H]2ON3CCC[C@@H]3[C@@H]12`, for which the GI50 is 3.61 µM (inactive) in [1]; 3.66 µM (inactive) in [2]; 3.33 µM (inactive) in assay [3]; 4.56 µM (inactive) in [4]; 1.21 µM (inactive) in [5]; 2.61 µM (inactive) in assay [6]. The GI50 was 3.73 µM (inactive) in assay [7]; 0.918 µM (active) in [8]; 0.286 µM (active) in assay [9]; 1.58 µM (inactive) in assay [10]; 2.48 µM (inactive) in assay [11]; 3.05 µM (inactive) in assay [12]. Further, the GI50 in assay [13] was 8.22 µM (inactive); in assay [14], 1.69 µM (inactive); in assay [15] it was 1.67 µM (inactive); in assay [19], 2.06 µM (inactive); in assay [16], 1.12 µM (inactive); in assay [17], 1.09 µM (active). For the same molecule, the GI50 in [18] is 4.61 µM (inactive).

For `C#C[C@]1(O)[C@@H](CO)O[C@@H](n2ccc(=O)[nH]c2=O)[C@@H]1O`, the GI50 in assay [1] is 0.413 µM (active); in assay [2] it was 0.357 µM (active); in [3], 0.251 µM (active); in assay [4], 0.374 µM (active); in assay [5], < 0.0121 µM (active); in [6] it was 0.0391 µM (active). Further, the GI50 in [7] was 1.41 µM (inactive); in assay [8] it was < 0.01 µM (active); in [9] it was 62.4 µM (inactive); in assay [10], 0.0278 µM (active); in assay [11], 0.25 µM (active); in assay [12], 0.0822 µM (active). The GI50 in assay [13] is 0.0746 µM (active); in [15], 0.173 µM (active); in assay [19] it was 0.0692 µM (active); in assay [16] it was 0.0339 µM (active); in [17], 0.0246 µM (active); in [18], < 0.0134 µM (active).

Regarding `O=C(c1ccc(Cl)cc1)N1CCN=C1c1cc2ccccc2c2ccccc12`, the GI50 was 15.2 µM (inactive) in assay [1]; 12.4 µM (inactive) in assay [2]; 16.2 µM (inactive) in assay [3]; 19 µM (inactive) in assay [4]; 16.7 µM (inactive) in [5]; 17.9 µM (inactive) in assay [6]. Also, the GI50 is 17.5 µM (inactive) in assay [7]; 17.3 µM (inactive) in assay [8]; 22.6 µM (inactive) in assay [9]; 16.9 µM (inactive) in assay [10]; 17.1 µM (inactive) in assay [11]; 16.4 µM (inactive) in assay [12]. Besides, the GI50 in [14] is 16.1 µM (inactive); in [15], 15.7 µM (inactive); in assay [19], 19.1 µM (inactive); in assay [16] it was 17.7 µM (inactive); in assay [17] it was 17.8 µM (inactive); in assay [18], 15.6 µM (inactive).

For the molecule `COc1cc2c3c(n(C)c(=O)c2cc1OC)-c1cc2c(cc1/C3=C/CCCCBr)OCO2`, the GI50 was > 100 µM (inactive) in assay [1]; 11.6 µM (inactive) in [2]; > 100 µM (inactive) in [3]; > 100 µM (inactive) in [4]; 17.1 µM (inactive) in assay [5]; > 100 µM (inactive) in assay [7]. The GI50 in [8] is > 100 µM (inactive); in assay [9], 1.57 µM (inactive); in assay [10], 71 µM (inactive); in assay [11], > 100 µM (inactive); in assay [12], > 100 µM (inactive); in assay [14], > 100 µM (inactive). Moreover, the GI50 in [19] was 3.76 µM (inactive); in assay [16], 4.73 µM (inactive); in assay [17], 62.8 µM (inactive); in assay [18] it was > 100 µM (inactive).
